In paper PMC7641245 (Chemical communications (Cambridge, England), 2020) one finds Kd data, which are given here for one substance.

A word on the Kd: it is the free concentration of one partner at which half of the binding sites on the other are occupied at equilibrium, for simple one-to-one binding. Low values mean higher affinity, high ones lower affinity.

This experiment has as its target T1, hIAPP (human islet amyloid polypeptide) (Homo sapiens, UniProt P10997).
T1 sequence (P10997 34-70): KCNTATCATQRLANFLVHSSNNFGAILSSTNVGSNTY
The experiment can be described thus: isothermal titration calorimetry. It counts as binding. The following applies: hIAPP fibers; no interaction seen by ITC with hIAPP monomers. On the technique in general: Isothermal titration calorimetry measures the heat released or taken up as one component is titrated into another.

For the substance CurDAc, the Kd was about 7 µM.
